Laboratory results taken from patent US20170067014A1, “METHOD FOR GENERATING CELL CONDENSATE FOR SELF-ORGANIZATION” (PUBLIC UNIVERSITY CORPORATION YOKOHAMA CITY UNIVERSITY, priority 2014, published 2017).

System: condensate formation in cocultures of iPSC-hepatic endoderm cells, HUVECs and MSCs
Test: Inhibitory experiment against cell condensate formation using chemical substances
Assay type: cell-based, human
Details: addition to the cocultures
Excerpt: Hepatic endoderm cells derived from human induced pluripotent stem cells (iPSCs), umbilical cord-derived endothelial cells (HUVECs), and mesenchymal stem cells (MSCs) were labeled with distinctive fluorescent markers and cocultured on a solidified matrix gel which was already described. […] To elucidate dynamics of such condensate formation in more detail, the present inventors examined the temporal development of the position of the edge of the cell condensate (square root of cell area) and circularity by image analysis (FIG. 1b).
On each well of a 24-well plate on which PA gel planar substrate was placed or to which Matrigel coating [Matrigel (BD) either in stock solution or as a mixture with medium at 1:1 was poured at 300 μl/well and left to stand in a 37° C., 5% CO2 incubator for 10 min until it solidified] was applied, 2×10^6 cells or more of multiple types in any combination (tissues isolated from embryo or adult, or KO-HepG2, HUVEC, etc.) as mixed with 2×10^5 MSCs were seeded. In order to form small-sized cell condensates, 4×10^3 cells or more of multiple types in any combination (tissues isolated from embryo or adult, or KO-HepG2, HUVEC) were mixed with 5×10^3 or more MSCs and seeded. In either case, the cells were subsequently cultured in a 37° C. incubator for a day. After seeding, chronological observation of cell coculture was performed with a stereomicroscope or a confocal microscope.

With `Cc1ccc2c(c1)C(=O)C1(O)CCN(c3ccccc3)C1=N2` (stereo not drawn) [blebbistatin] the “effect on condensate formation” value was “completely antagonized”.
For `C[C@@H](N)[C@H]1CC[C@H](C(=O)Nc2ccncc2)CC1` [Sample Y-27632], the “effect on condensate formation” value was “partially delayed”.
In the case of `c1cc(CN2CCCNCCNCCCNCC2)ccc1CN1CCCNCCNCCCNCC1` [AMD3100], the “effect on condensate formation” value is reported as “could not hinder”.
